In patent publication EP1087941B9, “THIOLESTERS AND USES THEREOF” (THE UNITED STATES OF AMERICA, as represented by THE …, priority 1998, dated 1999):
Like-named read-outs stand apart in the source and are kept apart here.

Columns and labels:
[1] = target: T1, recombinant HIV-1 protease (Human immunodeficiency virus type 1 group M subtype B, UniProt P03366); experiment: HPLC-based protease substrate cleavage assay; type: biochemical; details: for IC50: Table 7, high dose test of 100 µM, read-out: Protease I50
T1 construct: Substrate cleavage of recombinant HIV-1 protease
Experimental: The 5-bromovaleroyl thioester, compound 44, and two 5-pyridiniovaleroyl thioesters, compounds 45 and 47, were analyzed in mechanistic and target-based assays. […] Assays for activity against HIV-1 reverse transcriptase rAdT (template/primer) and rCdG (template/primer) using recombinant HIV-1 reverse transcriptase (S. Hughes, ABL Basic Research NCI-FCRDC, Frederick MD) were performed as described by Rice (1997) supra. Substrate cleavage of recombinant HIV-1 protease in the presence of test compounds using an HPLC-based methodology with the artificial substrate Ala-Ser-Glu-Asn-Try- Pro-Ile-Val-amide (Multiple Peptide Systems, San Diego CA) was performed as described by Rice (1997) supra. The ability of recombinant HIV-1 integrase (S. Hughes, ABL Basic Research NCI-FCRDC, Frederick MD) to carry out 3' processing and strand transfer activities in the presence of test compounds was performed as described by Buckheit (1994) AIDS Res. Hum. Retroviruses 10:1497-1506, and Turpin (1998) Antimicrob. Agents Chemother. 42: 487-494.

[2] = tested on: HIV-1 replication in TNFα-induced U1; experiment: Inhibition of p24 release from TNFα-induced U1 cells; type: cell-based
Experimental: Thiolester compounds were also tested for their ability to inhibit HIV-1 replication in TNFα-induced U1 and ACH-2 cells. U1 cells were induced with 5 ng/ml of TNFα in the presence of various concentrations of the thiolesters 44, 45 or 47. Forty-eight hours later the cultures were characterized for virus p24 antigen production and cell viability. […] Compound 44 killed 60% of the cells at 200 µM. […] Precursor processing evaluation performed as described by Turpin (1997) Antiviral Chem. Chemother. 8:60-69. Thus, thiolester PATEs initiate intracellular disulfide cross-linking of precursor polyproteins during late phase virus assembly and mediate a direct virucidal effect via an attack on the mature NCp7 retroviral zinc fingers in the cell-free virus.

[3] = target: T2, recombinant HIV-1 NCp7 protein (Human immunodeficiency virus type 1 group M subtype B, UniProt P03347); experiment: Trp37 zinc finger fluorescence (zinc ejection) assay; type: biochemical; design: Zinc Finger Reactivity, percent total decrease in flourescence / Zinc Finger Reactivity % Decrease: concentration or dose not given beside the values; details: for zinc finger reactivity in the presence of glutathione: 2 molar excess of glutathione; for Zinc Finger Reactivity, decrease in relative fluorescence units per 30 min. / Zinc Finger Reactivity, percent total decrease in flourescence: Table 7; for Zinc Finger Reactivity, percent total decrease in flourescence: value in parenthesis; for percent decrease in total Trp37 fluorescence (zinc ejection) at 2000 µM: 30 min incubation, read-out: Zinc Finger Reactivity % Decrease; for Zinc Finger Reactivity % Decrease: total percent decrease during a 30 min incubation; for zinc finger reactivity: result in words
T2 construct: within the nucleocapsid p7 (NCp7) protein portion of the polyprotein
Experimental: Zinc finger reactivity was measured using a Zn specific fluorochrome, TSQ, N-(6-methoxy-8-quinolyl) -p-toluenesulfonamide, assay or a Trp37 zinc finger fluorescence assay. Fluorescent measurements of the Trp37 residue in the C-terminal finger of recombinant HIV-1 NCp7 protein were performed as described by Rice (1995) Science 270:1194-1197; Rice (1997) Antimicrob. Agents Chemother. 41:419-426. Measurement of Zn ejection from both fingers was measured using the Zn-selective fluorchrome probe TSQ (Molecular Probes, Eugene OR) as described by Rice (1996) J. Med. Chem 39:3606-3616. Measurement of the ability of NCp7 to bind to a DNA oligomer, a 44 mer: […] (SEQ ID NO:1), analogous to the HIV-1 RNA packaging site was carried out as described by Huang (1998) J. Med. Chem. 41:1371-1381, see also, Rossio (1998) HIV Pathogenesis and Treatment: Keystone Symposium on Molecular and Cellular Biology, Abstract # 4082. Briefly, 50 nM NCp7 was treated with test compounds for 1 hour at RT in […] buffer containing 10% glycerol and 50 mM Tris-HCl (pH 7.5). Labeled oligomer (0.1 picomole, end labeled [^32P]) was added in an equal volume of buffer containing 10% glycerol, 50 mM Tris-HCl (pH 7.5), 400 mM KCl and 40 mM MgCl2. The reaction was continued for 15 min at room temperature, and a total of […] (or 1/4 of the total reaction volume) was separated on nondenaturing 4.5% polyacrylamide gels in 0.5X Tris-Borate electrophoresis buffer. NCp7-oligomer complexes were visualized by autoradiography.
Changes in the intrinsic fluorescence of aromatic protein moieties are commonly used to monitor a reaction which involves a change in protein conformation. In the present invention, fluorescence can be used to monitor the loss of metal ion from a zinc finger, e.g., the loss of zinc from a CCHC retroviral zinc finger protein, after contact with a thiolester of the invention. The intrinsic fluorescence of Trp 37 in the second zinc finger of HIV-1 NC protein has been used to monitor nucleic acid binding and conformation of the zinc finger complex (see, Summers (1992) supra).
Zinc ejection is measured by the ability of compounds to chemically attack the cysteines in purified NCp7 protein resulting in a loss of fluorescence due to the movement of the tryptophan 37 residue from an exposed to an internal position on the protein. Zinc ejection is measured and expressed as either percent decrease in total fluorescence or decrease in relative fluorescence units per min during a 30 min assay (RFU/min). A thiolester is considered within the scope of the invention if any amount of zinc ejection is detected. For example, compound 50 has a zinc ejection rate of 0.86 RFU/min.

[4] = tested on: CEM-SS cells; experiment: cells; type: cell-based
From the text: One exemplary means to determine antiviral activity is with CEM-SS cells and virus (e.g., HIV-1RF) (MOI = 0.01) using the XTT (2,3-bis[2-methoxy- 4-nitro-5-sulfophenyl] -5- [(phenylamino)carbonyl]-2H-tetrazolium hydroxide) cytoprotection assay, as described by Rice (1993) PNAS 90:9721-9724, and Rice (1997) Antimicrob. Agents Chemother. 41:419-426. Briefly, cells are infected with HIV-1RF (or other virus to be tested) in the presence of various dilutions of test compounds (thiolesters and controls). The cultures are incubated for seven days. During this time control cultures without protective compounds (i.e., compounds with anti-viral activity) replicate virus, induce syncytia, and result in about 90% cell death. The cell death is measured by XTT dye reduction. XTT is a soluble tetrazolimn dye that measures mitochondrial energy output, similar to MTT. Positive controls using dextran sulfate (an attachment inhibitor) or 3'-Azido -2'-3'-dideoxythymidine, AZT (a reverse transcriptase inhibitor) are added to each assay. Individual assays are done in duplicate using a sister plate method.
Effective antiviral concentrations providing 50% cytoprotection (EC50), and cellular growth inhibitory concentrations causing 50% cytotoxicity (IC50) are calculated.

[5] = Human immunodeficiency virus 1, 5 ng/ml TNFα, 48 hours, read-out: inhibition of release of HIV-1 virions (p24) from U1 cells, EC50
[6] = Human immunodeficiency virus 1, Table 9, read-out: U1 Inhibition of p24 (EC50 µM)
[7] = Table 5, average decrease in relative fluorescence units over 30 min
[8] = Table 6, average decrease in relative fluorescence units over 30 min
[9] = Table 8, GSH +: compounds (2 mM) treated 2 h at 37°C with 4 mM reduced glutathione
[10] = Homo sapiens, CEM-SS, Table 5, 50% cytotoxicity, read-out: Antiviral Activity IC50%
[11] = Homo sapiens, CEM-SS, Table 6, 50% cytotoxicity, read-out: Antiviral Activity IC50

| Structure (SMILES) | inhibition of HIV-1 protease enzyme activity [1] | IC50 [1] [µM] | EC50 [2, 5] [µM] | EC50 [2, 6] [µM] | zinc finger reactivity in the presence of glutathione [3] | Zinc Finger Reactivity RFU/ min [3, 7] [RFU/ min] | Zinc Finger Reactivity RFU/ min [3, 8] [RFU/ min] | Zinc Finger Reactivity, decrease in relative fluorescence units per 30 min. [3] [RFU/30 MIN] | Zinc Finger Reactivity, percent total decrease in flourescence [3] [%] | Zinc Finger Reactivity RFU/ min [3, 9] [RFU/min] | percent decrease in total Trp37 fluorescence (zinc ejection) at 2000 µM [3, 9] [%] | Zinc Finger Reactivity RFU/ min ([3]; Table 8, GSH -) [RFU/min] | Zinc Finger Reactivity % Decrease ([3]; Table 8, GSH -) [%] | zinc finger reactivity [3] | IC50 [4, 10] [µM] | IC50 [4, 11] [µM] | also measured |
| --- | --- | --- | --- | --- | --- | --- | --- | --- | --- | --- | --- | --- | --- | --- | --- | --- | --- |
| CC(=O)NS(=O)(=O)c1ccc(NC(=O)c2ccccc2SC(=O)CCCCBr)cc1 [Compound 44, N-[2-(5-bromovaleroylthio)benzoyl]sulfacetamide] | did not inhibit | > 100 | 94 | 94 | maintained the capacity to attack the cysteine thiols | 1.8 | 1.8 | 1.8 | 13.3 | 2.4 | 28 | 6.5 | 60.1 | promoted metal ion (zinc) ejection | 184 | 184 | – |
| CC(=O)NS(=O)(=O)c1ccc(NC(=O)c2ccccc2SC(=O)CCCC[n+]2ccccc2)cc1 [Compound 45, N-[2-(5-pyridinio-valeroylthio)benzoyl]sulfacetamide bromide] | did not inhibit | > 100 | 42.2 | 42.2 | maintained the capacity to attack the cysteine thiols | 3.6 | 3.6 | 3.6 | 34.7 | 3.8 | 36.9 | 2.6 | 28.2 | promoted metal ion (zinc) ejection | > 316 | > 316 | zinc finger reactivity / zinc ejection rate [3]: 3.6 RFU/min; Zinc Finger Reactivity RFU/ min ([3]; Table 10, average decrease in relative fluorescence units over 30 min): 3.6 RFU/ min; IC50 ([4]; Table 10, 50% cytotoxicity, read-out: Antiviral Activity IC50%): > 316 µM; toxicity at the high test dose ([4]; high test dose of 316 µM): no toxicity |
| O=C(CCCC[n+]1ccccc1)Sc1ccccc1C(=O)Nc1ccc(S(=O)(=O)c2ccc([N+](=O)[O-])cc2)cc1 [Compound 47] | did not inhibit | – | – | – | maintained the capacity to attack the cysteine thiols | – | 4.1 | 4.1 | 17.9 | 1.6 | 21.1 | 1.6 | 24.3 | promoted metal ion (zinc) ejection | – | – | EC50 ([2]; Human immunodeficiency virus 1, 48 h, read-out: inhibition of release of HIV-1 virions (p24) from U1 cells, EC50): 10.7 µM; EC50 ([2]; Human immunodeficiency virus 1, read-out: U1 Inhibition of p24 (EC50 µM)): 10.7 µM; IC50 ([4]; Homo sapiens, CEM-SS, read-out: Antiviral Activity IC50): > 316 µM |
